# According to patent US20230085307A1, “PYRIDAZINONE COMPOUND AND HERBICIDE” (NISSAN CHEMICAL CORPORATION, priority 2019, published 2023):
# What was measured:
# [1] = system: late watergrass; assay: Test Example 1: herbicidal activity, application before weed generation under submerged conditions (Table 16, symbol A); format: in vivo, late watergrass (Echinochloa oryzicola); conditions: for Herbicidal effect on A: late watergrass (grade 0-5): 320 g/ha applied herbicide; for Herbicidal effect, A: late watergrass: amount of applied herbicide 320 g/ha
# Summary of the method: (§1)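 Emulsion formulation, water-diluted to set dose, was put onto the flooded surface (4 cm depth, alluvial soil) the same day weeds were sown and 2.5-leaf rice transplanted. After 3 weeks at 25-30 °C under glass, each species was rated 0 (≤5% kill) to 5 (≥90% kill).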
# [2] = system: Japanese bulrush; assay: Test Example 1: herbicidal activity, application before weed generation under submerged conditions (Table 16, symbol B); format: in vivo, Japanese bulrush (Schoenoplectus juncoides); conditions: for Herbicidal effect on B: Japanese bulrush (grade 0-5): 320 g/ha applied herbicide; for Herbicidal effect, B: Japanese bulrush: amount of applied herbicide 320 g/ha
# Summary of the method: as §1
# [3] = system: oval-leafed pondweed; assay: Test Example 1: herbicidal activity, application before weed generation under submerged conditions (Table 16, symbol C); format: in vivo, oval-leafed pondweed (Monochoria vaginalis); conditions: for Herbicidal effect on C: oval-leafed pondweed (grade 0-5): 320 g/ha applied herbicide; for Herbicidal effect, C: oval-leafed pondweed: amount of applied herbicide 320 g/ha
# Summary of the method: as §1
# [4] = system: barnyard grass; assay: Test Example 3: herbicidal effect by foliage application, Wagner pot (Table 18, symbol H); format: in vivo, barnyard grass (Echinochloa crus-galli)
# Summary of the method: (§2)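 Plants were sown in alluvial soil held under 0.1–0.5 cm standing water and grown 14 days in a greenhouse at 25–30 °C. An emulsifiable formulation, water-diluted to the set dose, was then sprayed onto the foliage, and effects were scored three weeks later using previously defined criteria.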
# [5] = system: Chinese sprangletop; assay: Test Example 3: herbicidal effect by foliage application, Wagner pot (Table 18, symbol D); format: in vivo, chinese sprangletop (Leptochloa chinensis)
# Summary of the method: as §2
# [6] = system: rice flat sedge; assay: Test Example 3: herbicidal effect by foliage application, Wagner pot (Table 18, symbol E); format: in vivo, rice flat sedge (Cyperus iria)
# Summary of the method: as §2
# [7] = system: southern crabgrass; assay: Test Example 5: herbicidal effect by foliage application, plastic box (Table 20, symbol F); format: in vivo, southern crabgrass (Digitaria ciliaris)
# Summary of the method: (§3)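 Sow seeds spot-wise in sterilized diluvial soil; cover with ~1.5 cm soil. Grow 14 days in greenhouse, 25° C. to 30° C. Spray foliage with emulsion diluted to predetermined amount. Rate effect after 3 weeks.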
# [8] = system: green foxtail; assay: Test Example 5: herbicidal effect by foliage application, plastic box (Table 20, symbol G); format: in vivo, green foxtail (Setaria viridis)
# Summary of the method: as §3
# [9] = system: barnyard grass; assay: Test Example 5: herbicidal effect by foliage application, plastic box (Table 20, symbol H); format: in vivo, barnyard grass (Echinochloa crus-galli)
# Summary of the method: as §3
# [10] = system: wild oat; assay: Test Example 5: herbicidal effect by foliage application, plastic box (Table 20, symbol I); format: in vivo, wild oat (Avena fatua)
# Summary of the method: as §3
# [11] = system: blackgrass; assay: Test Example 5: herbicidal effect by foliage application, plastic box (Table 20, symbol J); format: in vivo, blackgrass (Alopecurus myosuroides)
# Summary of the method: as §3
# [12] = system: Italian ryegrass; assay: Test Example 5: herbicidal effect by foliage application, plastic box (Table 20, symbol K); format: in vivo, Italian ryegrass (Lolium multiflorum)
# Summary of the method: as §3
# [13] = system: windgrass; assay: Test Example 5: herbicidal effect by foliage application, plastic box (Table 20, symbol L); format: in vivo, windgrass (Apera spica-venti); conditions: foliage application, AAH 320 g/ha; for L: windgrass, herbicidal effect (criteria 0-5): evaluated three weeks after application
# Summary of the method: as §3
# [14] = system: velvetleaf; assay: Test Example 5: herbicidal effect by foliage application, plastic box (Table 20, symbol M); format: in vivo, velvetleaf (Abutilon theophrasti)
# Summary of the method: as §3
# [15] = system: redroot pigweed; assay: Test Example 5: herbicidal effect by foliage application, plastic box (Table 20, symbol N); format: in vivo, redroot pigweed (Amaranthus retroflexus)
# Summary of the method: as §3
# [16] = system: lambsquarters; assay: Test Example 5: herbicidal effect by foliage application, plastic box (Table 20, symbol O); format: in vivo, lambsquarters (Chenopodium album)
# Summary of the method: as §3
# [17] = system: chickweed; assay: Test Example 5: herbicidal effect by foliage application, plastic box (Table 20, symbol P); format: in vivo, common chickweed (Stellaria media)
# Summary of the method: as §3
# [18] = system: persian speedwell; assay: Test Example 5: herbicidal effect by foliage application, plastic box (Table 20, symbol R); format: in vivo, Persian speedwell (Veronica persica)
# Summary of the method: as §3
# [19] = foliage application, AAH 320 g/ha, three weeks after application
# [20] = foliage application, AAH 320 g/ha, evaluated three weeks after application
# [21] = amount of applied herbicide 320 g/ha
# [22] = 320 g/ha, foliage application after 14-day growth, evaluated three weeks after application
# [23] = amount of applied herbicide 320 g/ha, foliage application after 14-day growth, evaluated three weeks after application
Structure (SMILES),Herbicidal effect on A: late watergrass (grade 0-5) [1],Herbicidal effect on B: Japanese bulrush (grade 0-5) [2],Herbicidal effect on C: oval-leafed pondweed (grade 0-5) [3],"F: southern crabgrass, herbicidal effect (criteria 0-5) [7, 20]","G: green foxtail, herbicidal effect (criteria 0-5) [8, 20]","H: barnyard grass, herbicidal effect (criteria 0-5) [9, 20]","I: wild oat, herbicidal effect (criteria 0-5) [10, 20]","J: blackgrass, herbicidal effect (criteria 0-5) [11, 20]","K: Italian ryegrass, herbicidal effect (criteria 0-5) [12, 20]","L: windgrass, herbicidal effect (criteria 0-5) [13]","M: velvetleaf, herbicidal effect (criteria 0-5) [14, 20]","N: redroot pigweed, herbicidal effect (criteria 0-5) [15, 20]","O: lambsquarters, herbicidal effect (criteria 0-5) [16, 20]","P: chickweed, herbicidal effect (criteria 0-5) [17, 20]","R: persian speedwell, herbicidal effect (criteria 0-5) [18, 20]","Herbicidal effect, A: late watergrass [1]","Herbicidal effect, B: Japanese bulrush [2]","Herbicidal effect, C: oval-leafed pondweed [3]",herbicidal effect on barnyard grass (H) ([4]; 320 g/ha),herbicidal effect on Chinese sprangletop (D) ([5]; 320 g/ha),also measured
COc1cccc(OC)c1-c1sc2ccccc2c1-c1c(O)c(C)nn(C)c1=O [1-158],0 (Herbicidal rate of 5% or less (almost no effect)),2 (Herbicidal rate of 20% or more and less than 40%),0 (Herbicidal rate of 5% or less (almost no effect)),–,–,–,–,–,–,–,–,–,–,–,–,–,–,–,–,–,"herbicidal effect on H (barnyard grass), rating 0-5 ([4]; 320 g/ha): 2 (Herbicidal rate of 20% or more and less than 40%); herbicidal effect on D (Chinese sprangletop), rating 0-5 ([5]; 320 g/ha): 0 (Herbicidal rate of 5% or less (almost no effect)); herbicidal effect on E (rice flat sedge), rating 0-5 ([6]; 320 g/ha): 0 (Herbicidal rate of 5% or less (almost no effect)); F: southern crabgrass, herbicidal effect [7, 19]: 0 (Herbicidal rate of 5% or less (almost no effect)); G: green foxtail, herbicidal effect [8, 19]: 0 (Herbicidal rate of 5% or less (almost no effect)); H: barnyard grass, herbicidal effect [9, 19]: 0 (Herbicidal rate of 5% or less (almost no effect)); I: wild oat, herbicidal effect [10, 19]: 0 (Herbicidal rate of 5% or less (almost no effect)); J: blackgrass, herbicidal effect [11, 19]: 0 (Herbicidal rate of 5% or less (almost no effect)); K: Italian ryegrass, herbicidal effect [12, 19]: 0 (Herbicidal rate of 5% or less (almost no effect)); L: windgrass, herbicidal effect ([13]; three weeks after application): 0 (Herbicidal rate of 5% or less (almost no effect)); M: velvetleaf, herbicidal effect [14, 19]: 0 (Herbicidal rate of 5% or less (almost no effect)); N: redroot pigweed, herbicidal effect [15, 19]: 0 (Herbicidal rate of 5% or less (almost no effect)); O: lambsquarters, herbicidal effect [16, 19]: 0 (Herbicidal rate of 5% or less (almost no effect)); P: chickweed, herbicidal effect [17, 19]: 5 (Herbicidal rate of 90% or more (almost completely withered)); R: persian speedwell, herbicidal effect [18, 19]: 5 (Herbicidal rate of 90% or more (almost completely withered))"
Cc1nn(C)c(=O)c(-c2c(-c3cccc(OC(C)C#N)c3)sc3ccc(F)cc23)c1O (stereo not shown) [2-277],1 (Herbicidal rate of 5% or more and less than 20%),0 (Herbicidal rate of 5% or less (almost no effect)),2 (Herbicidal rate of 20% or more and less than 40%),0 (Herbicidal rate of 5% or less (almost no effect)),0 (Herbicidal rate of 5% or less (almost no effect)),0 (Herbicidal rate of 5% or less (almost no effect)),0 (Herbicidal rate of 5% or less (almost no effect)),0 (Herbicidal rate of 5% or less (almost no effect)),0 (Herbicidal rate of 5% or less (almost no effect)),0 (Herbicidal rate of 5% or less (almost no effect)),0 (Herbicidal rate of 5% or less (almost no effect)),2 (Herbicidal rate of 20% or more and less than 40%),0 (Herbicidal rate of 5% or less (almost no effect)),5 (Herbicidal rate of 90% or more (almost completely withered)),2 (Herbicidal rate of 20% or more and less than 40%),–,–,–,–,–,–
Cc1nn(C)c(=O)c(-c2c(-c3ccc(OC(F)F)cc3)sc3ccc(F)cc23)c1OCC(F)(F)F [2-302],3 (Herbicidal rate of 40% or more and less than 70%),0 (Herbicidal rate of 5% or less (almost no effect)),0 (Herbicidal rate of 5% or less (almost no effect)),0 (Herbicidal rate of 5% or less (almost no effect)),0 (Herbicidal rate of 5% or less (almost no effect)),0 (Herbicidal rate of 5% or less (almost no effect)),0 (Herbicidal rate of 5% or less (almost no effect)),0 (Herbicidal rate of 5% or less (almost no effect)),0 (Herbicidal rate of 5% or less (almost no effect)),0 (Herbicidal rate of 5% or less (almost no effect)),0 (Herbicidal rate of 5% or less (almost no effect)),3 (Herbicidal rate of 40% or more and less than 70%),1 (Herbicidal rate of 5% or more and less than 20%),4 (Herbicidal rate of 70% or more and less than 90%),1 (Herbicidal rate of 5% or more and less than 20%),–,–,–,–,–,"herbicidal effect on H: barnyard grass [4, 21]: 3 (Herbicidal rate of 40% or more and less than 70%); herbicidal effect on D: Chinese sprangletop [5, 21]: 0 (Herbicidal rate of 5% or less (almost no effect)); herbicidal effect on E: rice flat sedge [6, 21]: 3 (Herbicidal rate of 40% or more and less than 70%)"
Cc1nn(C)c(=O)c(-c2c(-c3ccc(C#N)cc3)sc3c(Cl)cccc23)c1O [4-031],–,–,–,–,–,–,–,–,–,–,–,–,–,–,–,2 (Herbicidal rate of 20% or more and less than 40%),0 (Herbicidal rate of 5% or less (almost no effect)),0 (Herbicidal rate of 5% or less (almost no effect)),3 (Herbicidal rate of 40% or more and less than 70%),3 (Herbicidal rate of 40% or more and less than 70%),"herbicidal effect on rice flat sedge (E) ([6]; 320 g/ha): 5 (Herbicidal rate of 90% or more (almost completely withered)); herbicidal effect on F: southern crabgrass (evaluation grade 0-5) [7, 22]: 0 (Herbicidal rate of 5% or less (almost no effect)); herbicidal effect on G: green foxtail (evaluation grade 0-5) [8, 22]: 2 (Herbicidal rate of 20% or more and less than 40%); herbicidal effect on H: barnyard grass (evaluation grade 0-5) [9, 22]: 0 (Herbicidal rate of 5% or less (almost no effect)); herbicidal effect on I: wild oat (evaluation grade 0-5) [10, 22]: 0 (Herbicidal rate of 5% or less (almost no effect)); herbicidal effect on J: blackgrass (evaluation grade 0-5) [11, 22]: 0 (Herbicidal rate of 5% or less (almost no effect)); herbicidal effect on K: Italian ryegrass (evaluation grade 0-5) [12, 22]: 3 (Herbicidal rate of 40% or more and less than 70%); herbicidal effect on M: velvetleaf (evaluation grade 0-5) [14, 22]: 3 (Herbicidal rate of 40% or more and less than 70%); herbicidal effect on N: redroot pigweed (evaluation grade 0-5) [15, 22]: 5 (Herbicidal rate of 90% or more (almost completely withered)); herbicidal effect on O: lambsquarters (evaluation grade 0-5) [16, 22]: 4 (Herbicidal rate of 70% or more and less than 90%); herbicidal effect on P: chickweed (evaluation grade 0-5) [17, 22]: 5 (Herbicidal rate of 90% or more (almost completely withered)); herbicidal effect on R: persian speedwell (evaluation grade 0-5) [18, 22]: 0 (Herbicidal rate of 5% or less (almost no effect))"
CCCC(=O)Oc1c(C)nn(C)c(=O)c1-c1c(-c2ccc(OC)c(OC)c2)sc2cc(F)c(F)cc12 [5-034],–,–,–,–,–,–,–,–,–,–,–,–,–,–,–,3 (Herbicidal rate of 40% or more and less than 70%),0 (Herbicidal rate of 5% or less (almost no effect)),0 (Herbicidal rate of 5% or less (almost no effect)),4 (Herbicidal rate of 70% or more and less than 90%),1 (Herbicidal rate of 5% or more and less than 20%),"herbicidal effect on rice flat sedge (E) ([6]; 320 g/ha): 0 (Herbicidal rate of 5% or less (almost no effect)); Herbicidal effect by foliage application, F: southern crabgrass [7, 23]: 0 (Herbicidal rate of 5% or less (almost no effect)); Herbicidal effect by foliage application, G: green foxtail [8, 23]: 3 (Herbicidal rate of 40% or more and less than 70%); Herbicidal effect by foliage application, H: barnyard grass [9, 23]: 0 (Herbicidal rate of 5% or less (almost no effect)); Herbicidal effect by foliage application, I: wild oat [10, 23]: 0 (Herbicidal rate of 5% or less (almost no effect)); Herbicidal effect by foliage application, J: blackgrass [11, 23]: 0 (Herbicidal rate of 5% or less (almost no effect)); Herbicidal effect by foliage application, K: Italian ryegrass [12, 23]: 0 (Herbicidal rate of 5% or less (almost no effect)); Herbicidal effect by foliage application, M: velvetleaf [14, 23]: 3 (Herbicidal rate of 40% or more and less than 70%); Herbicidal effect by foliage application, N: redroot pigweed [15, 23]: 3 (Herbicidal rate of 40% or more and less than 70%); Herbicidal effect by foliage application, O: lambsquarters [16, 23]: 4 (Herbicidal rate of 70% or more and less than 90%); Herbicidal effect by foliage application, P: chickweed [17, 23]: 5 (Herbicidal rate of 90% or more (almost completely withered)); Herbicidal effect by foliage application, R: persian speedwell [18, 23]: 4 (Herbicidal rate of 70% or more and less than 90%)"
